From patent publication US9499486B2, “Kinase inhibitor” (RESPIVERT LIMITED, priority 2014, dated 2016)
≈ marks a conversion by molar mass, not a printed value.

Columns and labels:
B-Raf = B-Raf (Homo sapiens (Human), UniProt P15056); assay: KINOMEscan binding of B-Raf to standard ligand
From the text: These assays may be conducted by DiscoverX (formerly Ambit; San Diego, Calif.).

p38 MAPKα = p38 MAPKα (Homo sapiens (Human), UniProt Q16539); assay: p38 MAPKα enzyme inhibition (Method 2), Z-LYTE FRET; assay type: biochemical
Protocol: (§1) The enzyme inhibitory activities of the compound disclosed herein are determined by FRET using synthetic peptides labelled with both donor and acceptor fluorophores (Z-LYTE, Invitrogen Ltd., Paisley, UK).
The inhibitory activities of test compounds against the p38 MAPKα isoform (MAPK14: Invitrogen) are evaluated indirectly by determining the level of activation/phosphorylation of the down-stream molecule, MAPKAP-K2. The p38 MAPKα protein (80 ng/mL, 2.5 μL) is mixed with the test compound (2.5 μL of either 4 μg/mL, 0.4 μg/mL, 0.04 μg/mL or 0.004 μg/mL) for 2 hr at RT. […] The mixture is incubated for 1 hr at RT. Development reagent (protease, 5 μL) is added for 1 hr prior to detection in a fluorescence microplate reader (Varioskan® Flash, ThermoFisher Scientific). […]
(§2) In all cases, the site-specific protease cleaves non-phosphorylated peptide only and eliminates the FRET signal. Phosphorylation levels of each reaction are calculated using the ratio of coumarin emission (donor) over fluorescein emission (acceptor), for which high ratios indicate high phosphorylation and low ratios indicate low phosphorylation levels.

GSK3α = GSK3α (Homo sapiens (Human), UniProt P49840); assay: GSK3α enzyme inhibition (Method 2), Z-LYTE FRET; assay type: biochemical
Protocol: as §1
The inhibitory activities of the compound of the invention against the GSK 3α enzyme isoform (Invitrogen), are evaluated by determining the level of activation/phosphorylation of the target peptide. The GSK3-α protein (500 ng/mL, 2.5 μL) is mixed with the test compound (2.5 μL at either 4 μg/mL, 0.4 μg/mL, 0.04 μg/mL, or 0.004 μg/mL) for 2 hr at RT. The FRET peptide (8 μM, 2.5 μL), which is a phosphorylation target for GSK3α, and ATP (40 μM, 2.5 μL) are then added to the enzyme/compound mixture and the resulting mixture incubated for 1 hr. Development reagent (protease, 5 μL) is added for 1 hr prior to detection in a fluorescence microplate reader (Varioskan® Flash, ThermoFisher Scientific).
as §2, with “levels. […]” for “levels.”

Jurkat cells = assay: Cell cytotoxicity assay (assay r); assay type: cell-based, human
Protocol: 1×10^5 Jurkat cells (immortalised human T lymphocytes) are added to the appropriate number of wells of a 96 well plate in 100 μL of media (RPMI supplemented with 10% foetal bovine serum). 1 μL of DMSO control (final concentration 1.0% v/v) or test compound (final concentration 20, 5 or 1 μg/mL) is added to the wells and incubated at 37° C., 5% CO2. After 24 hours, the plate is centrifuged at 1200 rpm for 3 minutes and the supernatant discarded. Cells are then resuspended in 150 μL (final concentration 7.5 μg/mL) of propidium iodide (PI) in PBS and incubated at 37° C., 5% CO2 for 15 minutes. After 15 minutes, cells are analysed by flow cytometry (BD accuri) using the FL3 window. The % viability is calculated as the % of cells that are PI negative in the test wells normalised to the DMSO control.

[1] = Solubility in fasted-state simulated colonic fluid (FaSSCoF); assay type: physicochemical
Protocol: The solubility of the compound of the invention in FaSSCoF at pH 6.5 is determined using a modification of a previously-reported procedure (Vertzoni, M., et al. Pharm. Res. 2010, 27, 2187-2196). In place of the bile salt extract employed in the original procedure (which extract is no longer available), the modified procedure uses a mixture of sodium taurochlorate (0.15 g), glycocholic acid (0.15 g), ursodeoxycholic acid (0.05 g), cholic acid (0.05 g), and glycodeoxycholic acid (0.05 g). These five bile acids are ground together with a mortar and pestle to produce a fine white powder that is incorporated into the FaSSCoF, as outlined below.
FaSSCoF medium: Tris(hydroxymethyl)aminomethane (Tris; 0.275 g) and maleic acid (0.44 g) are dissolved in water (35 mL) to give a solution whose pH is adjusted to 6.5 by treatment with 0.5M NaOH (ca. 12 mL). The solution is then made up to 50 mL with water. A portion of this Tris/maleate buffer solution (ca. 25 mL) is added to a 0.5 L round-bottomed flask, before being treated with 0.00565 g of the bile acid mixture described above. Solutions of phosphatidylcholine (0.0111 g) in DCM (0.15 mL) and palmitic acid (0.0013 g) in DCM (0.15 mL) are added, then the organic solvent is evaporated off under reduced pressure at 40° C. until a clear solution, with no perceptible DCM odour, is achieved. The volume of the evaporated solution is adjusted to 50 mL by addition of the remainder of Tris/maleate buffer, then BSA (0.115 g) is added, before being dissolved by gentle agitation.
Solubility Determination: Test compounds are suspended in the pH 6.5 FaSSCoF medium to give a maximum final concentration of 2-10 mg/mL. The suspensions are equilibrated at 25° C. for 24 h, before being filtered through a glass fibre C filter. The filtrates are then diluted as appropriate for injection and quantification by HPLC with reference to a standard. Different volumes of the standard, diluted and undiluted sample solutions are injected and the solubilities are calculated using the peak areas determined by integration of the peak found at the same retention time as the principal peak in the standard injection.

[2] = test system: Salmonella typhimurium, strains TA1535, TA1537, TA98 and TA100 and Escherichia coli, WP2 uvrA; assay: Bacterial reverse mutation screen (plate incorporation)

Sequence of GSK3α (P49840 whole entry): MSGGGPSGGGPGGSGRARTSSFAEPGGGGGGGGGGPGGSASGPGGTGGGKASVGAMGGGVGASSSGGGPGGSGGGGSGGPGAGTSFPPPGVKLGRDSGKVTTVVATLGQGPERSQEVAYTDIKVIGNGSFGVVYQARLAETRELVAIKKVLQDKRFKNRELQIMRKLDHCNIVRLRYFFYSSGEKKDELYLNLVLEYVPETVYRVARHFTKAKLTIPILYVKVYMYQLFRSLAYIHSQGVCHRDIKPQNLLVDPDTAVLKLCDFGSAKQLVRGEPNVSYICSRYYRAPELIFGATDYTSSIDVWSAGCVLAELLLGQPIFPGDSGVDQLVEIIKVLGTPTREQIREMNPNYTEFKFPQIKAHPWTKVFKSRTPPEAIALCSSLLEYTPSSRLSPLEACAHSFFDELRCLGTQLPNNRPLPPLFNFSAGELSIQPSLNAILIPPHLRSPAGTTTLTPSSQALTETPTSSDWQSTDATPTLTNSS
Sequence of B-Raf (P15056 whole entry): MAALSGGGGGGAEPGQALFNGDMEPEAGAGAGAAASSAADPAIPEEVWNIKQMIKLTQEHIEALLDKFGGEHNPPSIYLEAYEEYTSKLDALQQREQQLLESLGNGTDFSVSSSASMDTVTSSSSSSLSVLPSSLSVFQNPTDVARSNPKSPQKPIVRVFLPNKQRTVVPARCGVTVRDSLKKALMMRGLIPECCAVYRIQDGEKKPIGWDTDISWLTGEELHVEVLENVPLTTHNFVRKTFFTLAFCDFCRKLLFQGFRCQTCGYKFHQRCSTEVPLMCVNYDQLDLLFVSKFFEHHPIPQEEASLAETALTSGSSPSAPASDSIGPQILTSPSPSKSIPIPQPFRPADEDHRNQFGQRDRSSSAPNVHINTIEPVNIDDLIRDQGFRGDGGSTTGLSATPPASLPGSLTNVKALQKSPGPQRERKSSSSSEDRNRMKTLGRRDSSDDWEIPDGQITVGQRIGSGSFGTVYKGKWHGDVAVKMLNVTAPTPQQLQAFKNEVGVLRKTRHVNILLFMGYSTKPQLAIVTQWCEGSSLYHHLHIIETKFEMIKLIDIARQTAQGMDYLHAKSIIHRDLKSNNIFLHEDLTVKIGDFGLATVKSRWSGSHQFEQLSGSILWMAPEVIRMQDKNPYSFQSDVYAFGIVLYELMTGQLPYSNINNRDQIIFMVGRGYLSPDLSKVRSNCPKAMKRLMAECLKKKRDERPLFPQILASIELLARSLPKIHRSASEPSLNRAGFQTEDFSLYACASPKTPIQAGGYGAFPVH
Sequence of p38 MAPKα (Q16539 whole entry, looked up): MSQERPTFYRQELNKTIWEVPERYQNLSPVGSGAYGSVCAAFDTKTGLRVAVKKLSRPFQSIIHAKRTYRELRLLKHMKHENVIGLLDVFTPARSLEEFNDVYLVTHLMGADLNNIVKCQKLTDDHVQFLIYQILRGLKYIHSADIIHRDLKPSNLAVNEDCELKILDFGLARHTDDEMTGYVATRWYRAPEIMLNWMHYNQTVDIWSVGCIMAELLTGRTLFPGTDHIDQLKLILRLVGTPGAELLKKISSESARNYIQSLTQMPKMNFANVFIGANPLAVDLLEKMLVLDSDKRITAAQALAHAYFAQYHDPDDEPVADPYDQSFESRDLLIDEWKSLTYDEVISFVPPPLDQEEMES

COc1cc(Nc2cc(Oc3ccc(NC(=O)Nc4cc(C(C)(C)C)cc(NS(C)(=O)=O)c4OC)c4ccccc34)ccn2)ccc1C(=O)O [Example 1, 4-((4-((4-(3-(5-(tert-Butyl)-2-methoxy-3-(methylsulfonamido)phenyl)ureido)naphthalen-1-yl)oxy)pyridin-2-yl)amino)-2-methoxybenzoic acid]
effect on the binding of B-Raf to its standard ligand (B-Raf): did not have any significant effect
IC50 (p38 MAPKα): 11 nM
IC50 (GSK3α): 115 nM
% Viability at 1 μg/mL (Jurkat cells; 1 μg/mL, 24 hours): 94.6%
% Viability at 5 μg/mL (Jurkat cells; 5 μg/mL, 24 hours): 96.1%
% Viability at 20 μg/mL (Jurkat cells; 20 μg/mL, 24 hours): 95.8%
cytotoxicity compared with Reference Compound (Jurkat cells; assay (r)): substantially less cytotoxic than the Reference Compound
solubility at 24 h ([1]; fasted-state simulated colonic fluid (FaSSCoF), 25 °C, fassgf or other biorelevant, thermodynamic from solid, pH 6.5, text summary, read-out: solubilities in the FaSSCoF medium at pH 6.5): > 10 µg/mL
solubility thermodynamic at 24 h ([1]; fasted-state simulated colonic fluid (FaSSCoF), 25 °C, pH 6.5, fassgf or other biorelevant, thermodynamic from solid, pH 6.5, 25° C., 24 h, read-out: pH 6.5 FaSSCoF Solubility Run 3): 10 µg/mL (≈ 14.3 µM)
pH 6.5 FaSSCoF Solubility Run 1 ([1]; pH 6.5, 25° C., 24 h): 0.016 mg/mL
pH 6.5 FaSSCoF Solubility Run 2 ([1]; pH 6.5, 25° C., 24 h): 0.018 mg/mL
pH 6.5 FaSSCoF Solubility Run 4 ([1]; pH 6.5, 25° C., 24 h): 0.011 mg/mL
mutagenic effects ([2]; 15-1500 μg/plate, all strains, presence and absence of S-9 mix): absence of any mutagenic effects
toxicity of the test item to the bacteria ([2]; 500 and 1500 μg/plate in TA98, 1500 μg/plate in TA1535, presence of S-9 mix): reduction in the mean colony count
limit of solubility in mutation test ([2]; all strains, presence and absence of S-9 mix, plate incorporation): 1500 μg/plate
increases in revertant numbers ([2]; any strain, any dose level, presence or absence of S-9 mix): no dose-related or statistically significant increases
